{
  "source": "ChEMBL document CHEMBL3301555",
  "about": "“MMV Malaria Box screening in pLDH viability assay against Plasmodium falciparum gametocytes”",
  "data": [
    {"test_system": "Plasmodium falciparum", "test": "MMV: Measure of pLDH activity as indication of parasite viability. Gametocytogenesis of 3D7 Plasmodium falciparum strain was induced in vitro and asexual parasites were depleted with N-acetylglucosamine. Gametocytes were treated with dihydroartemisinin, epoxomicin, methylene blue, primaquine, puromycin or chloroquine in 96-well plates and the pLDH activity was evaluated using a modified Makler protocol. Mosquito infectivity was measured by the standard membrane feeding assay.", "assay_type": "functional", "design": "concentration or dose not given beside the values", "units": {"Growth Inhibition": "%"}, "values": [
      {"smiles": "CCOc1cc2c(cc1OCC)C(c1cc(Cl)ccc1O)NCC2", "note": "(stereo unspecified)", "Growth Inhibition": 24.0914},
      {"smiles": "CC(=O)NCCc1nc2ccccc2n1Cc1ccc(C(C)C)cc1", "Growth Inhibition": 10.8344},
      {"smiles": "CCOc1ccc(-n2cc(-c3ccccc3)c3c(SCc4cc(C)ccc4C)ncnc32)cc1", "Growth Inhibition": 2.789},
      {"smiles": "Cc1[nH]c(-c2ccc(F)cc2)cc1C(=O)NC1CCN(Cc2ccccc2)CC1", "Growth Inhibition": 9.4322},
      {"smiles": "Cc1cc(N2CCCC2)nc(Nc2ccc(NC(=O)CCc3ccccc3)cc2)n1", "Growth Inhibition": 14.278},
      {"smiles": "Cc1cc(C)c2c(c1)OCN(Cc1ccccc1Cl)C2", "Growth Inhibition": 32.69},
      {"smiles": "CN(C)c1ccc(-c2nc3cc(N)ccc3[nH]2)cc1", "Growth Inhibition": 18.3914},
      {"smiles": "CCOC(=O)c1cn(CC)c2cc(N(C)CCc3ccc(OC)c(OC)c3)c(F)cc2c1=O", "Growth Inhibition": 25.5006},
      {"smiles": "N=c1c2ccccc2nnn1-c1cccc(C(F)(F)F)c1", "Growth Inhibition": 20.848},
      {"smiles": "Cc1ccc(F)cc1NC(=O)c1cc(Cl)ccc1Nc1ccccc1", "Growth Inhibition": 10.2234},
      {"smiles": "Cl.Cn1c(=O)n(C)c2cc(CNCCNc3ccnc4cc(Cl)ccc34)ccc21", "Growth Inhibition": 35.6028},
      {"smiles": "CCOC(=O)C1=C(c2ccccc2)N=c2sc(=Cc3cc(C)n(-c4ccc(F)cc4)c3C)c(=O)n2C1c1cccc(OC)c1OC", "note": "(stereo unspecified)", "Growth Inhibition": -7.255},
      {"smiles": "CCOc1ccccc1CNC(=O)C1c2ccccc2C(=O)N(CC(C)C)C1c1cccs1", "note": "(stereo unspecified)", "Growth Inhibition": 7.24},
      {"smiles": "CCOc1ccc(CCNC(=O)c2cccs2)cc1OCC", "Growth Inhibition": 6.4232},
      {"smiles": "C=CCc1c(C)nc2ccccc2c1O", "Growth Inhibition": 8.3394},
      {"smiles": "O=C(CCc1ccco1)NC1CCN(CC2(c3ccc(Cl)cc3)CCC2)CC1", "Growth Inhibition": 18.8072},
      {"smiles": "CCCN(CCC)CC(O)COc1ccccc1C(=O)Nc1ccccc1", "note": "(stereo unspecified)", "Growth Inhibition": 34.3502},
      {"smiles": "CCCCN(CCCC)S(=O)(=O)c1ccc(NC(=O)c2ccco2)cc1", "Growth Inhibition": 9.666},
      {"smiles": "Cc1ccc(-c2cc3c(SCC(=O)Nc4cc(C(F)(F)F)ccc4Cl)nccn3n2)cc1", "Growth Inhibition": -10.2658},
      {"smiles": "Cc1ccc(Nc2nc(NCCO)c3ccccc3n2)cc1C", "Growth Inhibition": 11.5812},
      {"smiles": "O=C1c2ccc3c4c(ccc(c24)C(=O)N1CCCCO)C(=O)N(CCCCO)C3=O", "Growth Inhibition": 33.201},
      {"smiles": "COc1ccc(-c2cn3c(C(=O)Nc4ccccc4Cl)c(-c4ccccc4)c4c3n2CCCC4)cc1", "Growth Inhibition": 1.628},
      {"smiles": "COc1cccc(Nc2nc(N)c3ccccc3n2)c1.Cl", "Growth Inhibition": 17.598},
      {"smiles": "Cc1ccc(Cn2c(N3CCC(C(=O)NCc4cccs4)CC3)nc3ccccc32)cc1", "Growth Inhibition": -1.5746},
      {"smiles": "CCC1(C)CC(CCNCc2ccccc2O)(c2ccc(C)cc2)CCO1", "note": "(stereo unspecified)", "Growth Inhibition": 26.52},
      {"smiles": "c1ccc(Cn2c(N=Nc3c(Nc4ccccc4)ccc4ccccc34)nc3ccccc32)cc1", "Growth Inhibition": 28.0754},
      {"smiles": "O=C(Nc1ccc(CN2CCOCC2)cc1)c1ccc(-c2ccc(Br)cc2)o1", "Growth Inhibition": 17.4274},
      {"smiles": "COc1ccc(C2N(C)c3ccccc3N2C)cc1", "Growth Inhibition": 3.9982},
      {"smiles": "CCCc1cc(O)c2c3c(c(=O)oc2c1)CN(C)CC3", "Growth Inhibition": 31.2868},
      {"smiles": "COc1ccc(CNC(=O)c2cc3c(=O)n4ccccc4nc3n(CCc3ccccc3)c2=N)cc1", "Growth Inhibition": 29.2402},
      {"smiles": "COc1ccc(C2=C(c3ccc(OC)cc3)C3(c4ccccc4)C(=O)C2(c2ccccc2)C2C(=O)N(c4ccc(C)cc4)C(=O)C23)cc1", "note": "(stereo unspecified)", "Growth Inhibition": -4.8036},
      {"smiles": "COc1cc(SC)ccc1C(=O)N1CCCC(C)C1", "note": "(stereo unspecified)", "Growth Inhibition": 14.445},
      {"smiles": "O=C(Nc1ccc(CN2CCOCC2)cc1)c1ccc(-c2cc(Cl)ccc2Cl)o1", "Growth Inhibition": 12.3128},
      {"smiles": "O=C1CC(O)(C(F)(F)C(F)(F)F)Oc2ccccc21", "note": "(stereo unspecified)", "Growth Inhibition": 1.4958},
      {"smiles": "COc1cc2c(cc1OC)C1=NNC(=O)C1=NC(C)(C)C2", "Growth Inhibition": 35.8316},
      {"smiles": "Cc1ccc(N2C(=O)C3C(C2=O)C2(c4ccccc4)C(=O)C3(c3ccccc3)C(c3ccccc3)=C2c2ccccc2)cc1", "note": "(stereo unspecified)", "Growth Inhibition": 4.6846},
      {"smiles": "Cc1c(C)n(CC(O)CNC2CCCCC2C)c2ccccc12", "note": "(stereo unspecified)", "Growth Inhibition": 42.7668},
      {"smiles": "CCc1ccc(Nc2cc(C)c3ccc(O)cc3n2)cc1.Cl", "Growth Inhibition": 27.662},
      {"smiles": "COc1cccc(O)c1CN1CCC2(CCCN(Cc3ccc(F)cc3)C2)C1", "note": "(stereo unspecified)", "Growth Inhibition": 38.0312},
      {"smiles": "CCOc1cc(CNC(C)C(O)c2ccccc2)cc(Cl)c1OCC", "note": "(stereo unspecified)", "Growth Inhibition": 17.857},
      {"smiles": "CN(C)CCNc1cc(-c2ccccc2)nc2ccccc12", "Growth Inhibition": 2.7026},
      {"smiles": "Cc1cc(Nc2ccc(C)c(Cl)c2)n2nc(C(F)(F)F)nc2n1", "Growth Inhibition": 1.818},
      {"smiles": "CCC(=O)Nc1nnc(Cc2ccc(OC)c(OC)c2)s1", "Growth Inhibition": 9.8854},
      {"smiles": "Fc1ccc2[nH]c3c(NCCCN4CCOCC4)ncnc3c2c1", "Growth Inhibition": 3.632},
      {"smiles": "CCCCc1c(CCC)c(=N)c2ccccc2n1C.I", "Growth Inhibition": 1.3375},
      {"smiles": "Br.Cc1ccc(C)c(-c2csc(Nc3ccc(C)c(C)c3)n2)c1", "Growth Inhibition": -6.2508},
      {"smiles": "CN1CCN(c2ncnc3c2[nH]c2ccc(Cl)cc23)CC1", "Growth Inhibition": 7.405},
      {"smiles": "CC1(c2ccccc2)Nc2ccccc2-c2nc3ccccc3n21", "note": "(stereo unspecified)", "Growth Inhibition": 8.0798},
      {"smiles": "COc1cc(C(=O)Nc2ccc(-c3nc4ccccc4[nH]3)cc2)cc(OC)c1OC", "Growth Inhibition": 13.7592},
      {"smiles": "CCCCCn1c(=N)n(CC(O)COc2cccc(C)c2)c2ccccc21.Cl", "note": "(stereo unspecified)", "Growth Inhibition": 34.3056},
      {"smiles": "COc1ccccc1CNC(=O)C1c2ccccc2C(=O)N(CC(C)C)C1c1cccs1", "note": "(stereo unspecified)", "Growth Inhibition": 12.474},
      {"smiles": "COc1cccc(C=Cc2nc(=O)c3ccccc3o2)c1OC", "Growth Inhibition": 2.1344},
      {"smiles": "CC1CCCCN1CCCNC(=O)c1ccc2c(c1)sc1nc(-c3ccc(F)cc3)cn12", "note": "(stereo unspecified)", "Growth Inhibition": 16.9994},
      {"smiles": "CCOc1c(Br)cc(C2C(C(=O)OC)=CN(C)C=C2C(=O)OC)cc1OC", "Growth Inhibition": 11.9416},
      {"smiles": "Oc1ccc(Cl)cc1CNc1nc2ccccc2[nH]1", "Growth Inhibition": 5.249},
      {"smiles": "C=CC12CCN(CC1)C(C(O)c1ccnc3ccc(OC)cc13)C2.Cl", "note": "(stereo unspecified)", "Growth Inhibition": 15.913},
      {"smiles": "CCC(O)c1ccc(Br)cc1NC(=O)c1cccc(Cl)c1", "note": "(stereo unspecified)", "Growth Inhibition": 24.26},
      {"smiles": "CCOc1c(Cl)cc(CNC(C)C(O)c2ccccc2)cc1OC", "note": "(stereo unspecified)", "Growth Inhibition": 22.4902},
      {"smiles": "COc1ccc2c(c1OC)C(=O)N1c3ccccc3N=C(c3ccc(C)cc3)CC21", "note": "(stereo unspecified)", "Growth Inhibition": 14.488},
      {"smiles": "O=C(Nc1ccc(C23CC4CC(CC(c5ccccc5)(C4)C2)C3)cc1)c1cccs1", "Growth Inhibition": 4.2535},
      {"smiles": "O=C(Nc1cccc(C2=NCCN2)c1)Nc1cccc(C2=NCCN2)c1", "note": "[IMIDOCARB]", "Growth Inhibition": 24.1816},
      {"smiles": "OCCNc1nc(Nc2ccc(Cl)c(Cl)c2)nc2ccccc12", "Growth Inhibition": 18.8816},
      {"smiles": "CCCC(c1nnnn1C1CCCCC1)N1CCN(C(=O)c2ccco2)CC1.Cl", "note": "(stereo unspecified)", "Growth Inhibition": 10.3688},
      {"smiles": "COc1ccc(OC)c(C2C3=C(CC(C)(C)CC3=O)N(c3ccc(Cl)c(Cl)c3)C3=C2C(=O)CC(C)(C)C3)c1", "Growth Inhibition": 21.894},
      {"smiles": "COc1ccc(N2CCN(C(CNC(=O)CC(C)(C)C)c3ccc4c(c3)OCO4)CC2)cc1", "note": "(stereo unspecified)", "Growth Inhibition": 14.9208},
      {"smiles": "Cc1ccc(C2CC(C(F)(F)F)n3nc(C(=O)N4CCN(C(c5ccccc5)c5ccccc5)CC4)cc3N2)cc1", "note": "(stereo unspecified)", "Growth Inhibition": 4.7565},
      {"smiles": "COc1ccc(-c2cc(=O)oc3c4c(ccc23)OCN(Cc2ccc(F)cc2)C4)cc1", "Growth Inhibition": 25.9468},
      {"smiles": "O=C(Nc1ccccc1O)c1ccc(-c2ccc(Cl)cc2Cl)o1", "Growth Inhibition": 15.81},
      {"smiles": "CC(NCc1ccccc1)c1cc(Cl)ccc1O", "note": "(stereo unspecified)", "Growth Inhibition": 40.6308},
      {"smiles": "FC(F)(F)c1ccc(Nc2nnnc3ccccc23)cc1", "Growth Inhibition": 21.2738},
      {"smiles": "c1ccc2c(NCCc3c[nH]c4ccccc34)c3ccccc3nc2c1", "Growth Inhibition": 22.8248},
      {"smiles": "Cc1ccc(C)c(Cn2c(N3CCC(C(=O)NCc4cccs4)CC3)nc3ccccc32)c1", "Growth Inhibition": 5.2598},
      {"smiles": "Cc1cc(N2CCN(C3CCCC3)CC2)n2c(nc3ccccc32)c1C#N", "Growth Inhibition": 0.943},
      {"smiles": "O=C(NC1CCN(Cc2ccccc2)CC1)c1cc(-c2ccncc2)nc2ccc(Cl)cc12", "Growth Inhibition": 12.9682},
      {"smiles": "CC1CCN(Cc2c(O)ccc3cc(-c4nc5ccccc5s4)c(=O)oc23)CC1", "Growth Inhibition": 9.8172},
      {"smiles": "OC(CNC1CCCCC1)Cn1c2ccccc2c2ccccc21", "note": "(stereo unspecified)", "Growth Inhibition": 33.5526},
      {"smiles": "COc1cc(C(=O)Nc2nc3c(cc4c5c(cccc53)CC4)s2)cc(OC)c1OC", "Growth Inhibition": 2.6754},
      {"smiles": "COc1ccc(Nc2nc(NCc3ccccc3)c3ccccc3n2)cc1", "Growth Inhibition": 17.5424},
      {"smiles": "FC(F)(F)c1cccc(Nc2nc3ccccc3nc2Nc2cccc(C(F)(F)F)c2)c1", "Growth Inhibition": 23.1188},
      {"smiles": "Cc1ccccc1OCCSc1nc2ccc(NC(=O)c3ccccc3)cc2s1", "Growth Inhibition": -3.751},
      {"smiles": "CCN1CCN(c2c(C(=O)c3ccccc3)cnc3cc(OC)c(OC)cc23)CC1", "Growth Inhibition": -1.335},
      {"smiles": "O=C(NC1CCN(Cc2ccccc2)CC1)c1cc2nc(-c3ccc(Cl)s3)cc(C(F)(F)F)n2n1", "Growth Inhibition": 6.5116},
      {"smiles": "N=c1n(CCN2CCCCC2)c2ccccc2n1CC(=O)c1ccc(Cl)c(Cl)c1", "Growth Inhibition": 13.8938},
      {"smiles": "CCOC(=O)c1c(NC(=O)c2ccccc2)sc2c(O)c(CN(CC)CC)ccc12", "Growth Inhibition": 35.4934},
      {"smiles": "Cc1cc(Nc2cccc(F)c2)nc(NCc2ccccc2)n1", "Growth Inhibition": 7.8192},
      {"smiles": "CCN(CC)CCCNc1ccnc2cc3ccccc3cc12", "Growth Inhibition": 22.6902}
    ]}
  ]
}
